Results reported in PubChem BioAssay AID1918949 (Molecular Pharmacology Branch, DTP, NCI, 2023).
Several values for one entry are separate records, joined by “and”; a condition that tells them apart may be missing. Equal entries are not always repeated. Blank lines part the entries; values can stand above or below the molecule they belong to.

Tested on: K24384-001-R-PDC complex spheroid viability
Assay: Anticancer human tumor K24384-001-R-PDC patient-derived pancreatic adenocarcinoma cell line growth inhibition
Conditions: for viability, T/C: stronger effect = lower value
How it was run: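 Multicellular complex spheroids of tumor cells with human endothelial cells (HUVEC) and mesenchymal stem cells; the LSD1 inhibitor iadademstat was combined with standard-of-care or investigational agents. Top concentration at or near clinical Cmax, half-log dilutions; final DMSO ≤0.25%.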

[1] = curve of first compound, second compound 0.1 µM
[2] = curve of first compound, second compound 0.316 µM
[3] = curve of first compound, second compound 1 µM
[4] = curve of first compound, second compound 3.16 µM
[5] = curve of first compound, second compound 10 µM
[6] = second compound 0.1 µM, first compound 0.0316 µM
[7] = second compound 0.1 µM, first compound 0.1 µM
[8] = second compound 0.1 µM, first compound 0.316 µM
[9] = second compound 0.1 µM, first compound 1 µM
[10] = second compound 0.1 µM, first compound 3.16 µM
[11] = second compound 0.1 µM, first compound 10 µM
[12] = second compound 0.316 µM, first compound 0.0316 µM
[13] = second compound 0.316 µM, first compound 0.1 µM
[14] = second compound 0.316 µM, first compound 0.316 µM
[15] = second compound 0.316 µM, first compound 1 µM
[16] = second compound 0.316 µM, first compound 3.16 µM
[17] = second compound 0.316 µM, first compound 10 µM
[18] = second compound 1 µM, first compound 0.0316 µM
[19] = second compound 1 µM, first compound 0.1 µM
[20] = second compound 1 µM, first compound 0.316 µM
[21] = second compound 1 µM, first compound 1 µM
[22] = second compound 1 µM, first compound 3.16 µM
[23] = second compound 1 µM, first compound 10 µM
[24] = second compound 3.16 µM, first compound 0.0316 µM
[25] = second compound 3.16 µM, first compound 0.1 µM
[26] = second compound 3.16 µM, first compound 0.316 µM
[27] = second compound 3.16 µM, first compound 1 µM
[28] = second compound 3.16 µM, first compound 3.16 µM
[29] = second compound 3.16 µM, first compound 10 µM
[30] = second compound 10 µM, first compound 0.0316 µM
[31] = second compound 10 µM, first compound 0.1 µM
[32] = second compound 10 µM, first compound 0.316 µM
[33] = second compound 10 µM, first compound 1 µM
[34] = second compound 10 µM, first compound 3.16 µM
[35] = second compound 10 µM, first compound 10 µM
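Also: spheroids exposed to agents for seven days before luminescence viability reading.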
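For viability, T/C in this document: 100% = DMSO vehicle control viability.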

Structure (SMILES): CC(C)c1c(-c2ccccc2)nc2c(C#N)c[nH]n2c1=O + NC1CCC(NC2CC2c2ccccc2)CC1
IC50 [1]: > 10000 nM
IC50 [2]: > 10000 nM
IC50 [3]: > 10000 nM
IC50 [4]: > 10000 nM
IC50 [5]: > 10000 nM
viability, T/C [6]: 78.2%
viability, T/C [7]: 80.2%
viability, T/C [8]: 77.7%
viability, T/C [9]: 77.3%
viability, T/C [10]: 81.4%
viability, T/C [11]: 81%
viability, T/C [12]: 78.3%
viability, T/C [13]: 70.4%
viability, T/C [14]: 85.8%
viability, T/C [15]: 72.2%
viability, T/C [16]: 77.1%
viability, T/C [17]: 87.5%
viability, T/C [18]: 72.5%
viability, T/C [19]: 67.4%
viability, T/C [20]: 96.3%
viability, T/C [21]: 75.3%
viability, T/C [22]: 75%
viability, T/C [23]: 97.4%
viability, T/C [24]: 73%
viability, T/C [25]: 81.5%
viability, T/C [26]: 82.5%
viability, T/C [27]: 71%
viability, T/C [28]: 75%
viability, T/C [29]: 77.9%
viability, T/C [30]: 77.2%
viability, T/C [31]: 74.7%
viability, T/C [32]: 80.2%
viability, T/C [33]: 76.6%
viability, T/C [34]: 80.1%
viability, T/C [35]: 83.6%

Structure (SMILES): Nc1ccccc1NC(=O)c1ccc(CNC(=O)OCc2cccnc2)cc1 + NC1CCC(NC2CC2c2ccccc2)CC1
IC50 [1]: 376 nM
IC50 [2]: 444 nM
IC50 [3]: 447 nM
IC50 [4]: 401 nM
IC50 [5]: 321 nM
viability, T/C (second compound 0.1 µM, first compound 0.00949 µM): 86.6%
viability, T/C (second compound 0.1 µM, first compound 0.03 µM): 84.9%
viability, T/C (second compound 0.1 µM, first compound 0.0949 µM): 76.2%
viability, T/C (second compound 0.1 µM, first compound 0.3 µM): 61.3%
viability, T/C (second compound 0.1 µM, first compound 0.949 µM): 5.83%
viability, T/C (second compound 0.1 µM, first compound 3 µM): 0.14%
viability, T/C (second compound 0.316 µM, first compound 0.00949 µM): 79.7%
viability, T/C (second compound 0.316 µM, first compound 0.03 µM): 82.1%
viability, T/C (second compound 0.316 µM, first compound 0.0949 µM): 83.7%
viability, T/C (second compound 0.316 µM, first compound 0.3 µM): 70.8%
viability, T/C (second compound 0.316 µM, first compound 0.949 µM): 9.57%
viability, T/C (second compound 0.316 µM, first compound 3 µM): 0.15%
viability, T/C (second compound 1 µM, first compound 0.00949 µM): 80.3%
viability, T/C (second compound 1 µM, first compound 0.03 µM): 89%
viability, T/C (second compound 1 µM, first compound 0.0949 µM): 92%
viability, T/C (second compound 1 µM, first compound 0.3 µM): 70.6%
viability, T/C (second compound 1 µM, first compound 0.949 µM): 10.4%
viability, T/C (second compound 1 µM, first compound 3 µM): 0.13%
viability, T/C (second compound 3.16 µM, first compound 0.00949 µM): 79.9%
viability, T/C (second compound 3.16 µM, first compound 0.03 µM): 88.2%
viability, T/C (second compound 3.16 µM, first compound 0.0949 µM): 80.2%
viability, T/C (second compound 3.16 µM, first compound 0.3 µM): 65.2%
viability, T/C (second compound 3.16 µM, first compound 0.949 µM): 5.24%
viability, T/C (second compound 3.16 µM, first compound 3 µM): 0.16%
viability, T/C (second compound 10 µM, first compound 0.00949 µM): 84.1%
viability, T/C (second compound 10 µM, first compound 0.03 µM): 90.7%
viability, T/C (second compound 10 µM, first compound 0.0949 µM): 88.7%
viability, T/C (second compound 10 µM, first compound 0.3 µM): 53%
viability, T/C (second compound 10 µM, first compound 0.949 µM): 1.77%
viability, T/C (second compound 10 µM, first compound 3 µM): 0.2%

Structure (SMILES): CC(C)c1c(-c2ccccc2)nc2c(C#N)c[nH]n2c1=O + NC1CC1c1ccc(-c2cccc(O)c2)cc1
IC50 [1]: > 10000 nM
IC50 [2]: > 10000 nM
IC50 [3]: > 10000 nM
IC50 [4]: > 10000 nM
IC50 [5]: > 10000 nM
viability, T/C [6]: 84%
viability, T/C [7]: 114%
viability, T/C [8]: 71%
viability, T/C [9]: 86.7%
viability, T/C [10]: 73.1%
viability, T/C [11]: 76.3%
viability, T/C [12]: 119%
viability, T/C [13]: 84.1%
viability, T/C [14]: 65.9%
viability, T/C [15]: 86%
viability, T/C [16]: 90.8%
viability, T/C [17]: 74.8%
viability, T/C [18]: 82.3%
viability, T/C [19]: 62.7%
viability, T/C [20]: 72.6%
viability, T/C [21]: 65%
viability, T/C [22]: 70.1%
viability, T/C [23]: 69.8%
viability, T/C [24]: 85.5%
viability, T/C [25]: 79%
viability, T/C [26]: 91.4%
viability, T/C [27]: 66.9%
viability, T/C [28]: 67.3%
viability, T/C [29]: 72.2%
viability, T/C [30]: 78.8%
viability, T/C [31]: 86.2%
viability, T/C [32]: 84.8%
viability, T/C [33]: 76.5%
viability, T/C [34]: 70.8%
viability, T/C [35]: 76.8%

Structure (SMILES): Nc1ncn(C2CC(O)C(CO)O2)c(=O)n1 (stereo not drawn) + NC1CCC(NC2CC2c2ccccc2)CC1
IC50 [1]: > 1000 nM
IC50 [2]: > 1000 nM
IC50 [3]: > 1000 nM
IC50 [4]: > 1000 nM
IC50 [5]: > 1000 nM
viability, T/C (second compound 0.1 µM, first compound 0.00316 µM): 78.3%
viability, T/C (second compound 0.1 µM, first compound 0.01 µM): 93.8%
viability, T/C [6]: 80.4%
viability, T/C [7]: 73.6%
viability, T/C [8]: 79.5%
viability, T/C [9]: 73.5%
viability, T/C (second compound 0.316 µM, first compound 0.00316 µM): 88%
viability, T/C (second compound 0.316 µM, first compound 0.01 µM): 79.4%
viability, T/C [12]: 87.4%
viability, T/C [13]: 82.5%
viability, T/C [14]: 76.2%
viability, T/C [15]: 85.1%
viability, T/C (second compound 1 µM, first compound 0.00316 µM): 88.4%
viability, T/C (second compound 1 µM, first compound 0.01 µM): 80.5%
viability, T/C [18]: 82.6%
viability, T/C [19]: 68.3%
viability, T/C [20]: 78.6%
viability, T/C [21]: 70.1%
viability, T/C (second compound 3.16 µM, first compound 0.00316 µM): 89.8%
viability, T/C (second compound 3.16 µM, first compound 0.01 µM): 88%
viability, T/C [24]: 105%
viability, T/C [25]: 76.6%
viability, T/C [26]: 59.7%
viability, T/C [27]: 60.9%
viability, T/C (second compound 10 µM, first compound 0.00316 µM): 92.9%
viability, T/C (second compound 10 µM, first compound 0.01 µM): 83.8%
viability, T/C [30]: 87.8%
viability, T/C [31]: 63.2%
viability, T/C [32]: 73.7%
viability, T/C [33]: 72.7%

Further lines, with some results ahead:

IC50 (curve of compound): > 10000 nM
Structure (SMILES): CC(C)c1c(-c2ccccc2)nc2c(C#N)c[nH]n2c1=O
viability, T/C (compound 0.0316 µM): 89.9% and 82.5%
viability, T/C (compound 0.1 µM): 88.6% and 104%
viability, T/C (compound 0.316 µM): 96.9% and 93.2%
viability, T/C (compound 1 µM): 94.9% and 81.5%
viability, T/C (compound 3.16 µM): 97.4% and 69.9%
viability, T/C (compound 10 µM): 104% and 91.6%

IC50 (curve of compound): 35.1 nM and 8.59 nM
Structure (SMILES): CC1COCCN1c1cc(-c2ccnn2C)c2ccnc(-c3ccn[nH]3)c2n1 (stereo not drawn)
viability, T/C (compound 0.00316 µM): 64.7% and 53.9%
viability, T/C (compound 0.01 µM): 56.8% and 55.5%
viability, T/C (compound 0.0316 µM): 47.3% and 37.6%
viability, T/C (compound 0.1 µM): 46.8% and 42.9%
viability, T/C (compound 0.316 µM): 49.4% and 44.7%
viability, T/C (compound 1 µM): 38.1% and 38.2%

IC50 (curve of compound): > 3000 nM
Structure (SMILES): CCN(c1cc(-c2ccc(CN3CCOCC3)cc2)cc(C(=O)NCc2c(C)cc(C)[nH]c2=O)c1C)C1CCOCC1
viability, T/C (compound 0.00949 µM): 114% and 95.8%
viability, T/C (compound 0.03 µM): 107% and 113%
viability, T/C (compound 0.0949 µM): 117% and 106%
viability, T/C (compound 0.3 µM): 96.4% and 99.3%
viability, T/C (compound 0.949 µM): 81.8% and 84.4%
viability, T/C (compound 3 µM): 63.5% and 72.9%

IC50 (curve of compound): > 300 nM
Structure (SMILES): Nc1ncn(C2CC(O)C(CO)S2)c(=O)n1 (stereo not drawn)
viability, T/C (compound 0.000949 µM): 93.1% and 95.2%
viability, T/C (compound 0.003 µM): 96.3% and 88.6%
viability, T/C (compound 0.00949 µM): 96.3% and 85.4%
viability, T/C (compound 0.03 µM): 83.3% and 89.3%
viability, T/C (compound 0.0949 µM): 81.3% and 69.1%
viability, T/C (compound 0.3 µM): 55.9% and 56.2%
